In patent US10100036B2, “Lappaconitine aza-cinnamic acid derivatives with anti-tumor activities and a method of preparing the same” (priority 2016, dated 2018):

Columns and labels:
[1] = system: human gastric adenocarcinoma cell line (SGC-7901); assay: tumor cell proliferation inhibition test, MTT method; type: cell-based; conditions: 48 hours treatment
Protocol: (§1) The compounds of the present invention were subjected to tumor cell proliferation inhibition test, and the conventional MTT method was used as the test method.
(§2) Cell lines selected are human prostate cancer cell line (PC-3), human gastric adenocarcinoma cell line (SGC-7901), and human lung cancer cell (A-549). The culture medium was DMEM+15% NBS+double antibody.
(§3) Preparation of the sample solutions: compounds were dissolved in DMSO (Merck), and PBS (−) was add to 100 μL of the solution or homogeneous suspension. The solution or suspension was diluted with DMSO and PBS(−) to final concentrations of 0.1, 1, 10, 20, 40, 60, 80, 100 μmol/L.
(§4) Anti-tumor agent 5-fluorouracil (5-FU) was used as control and was prepared in the same way as the compounds.
(§5) Living cells mitochondria in the dehydrogenase can reduce yellow MTT to water-insoluble blue-violet product MT (MTT formazan), deposited in the cells. The amount of production is proportional to the number of living cells. […] DMSO can dissolve blue violet crystals, and the color depth is proportional to the amount contained, so the absorbance measured by the microplate reader can reflect the cell viability.
(§6) The exponential phase cells were digested and counted and seeded in 96-well plates at a density of 2×10^4/mL at 100 μl per well. After 24 hours of incubation, the cells to be tested were treated with 0.1, 1, 10, 20, 40, 60, 80, 100 μmol/L of the compounds. Each experimental group had 5 wells in each concentration, and the culture medium containing 0.4% DMSO was used as control. After 48 hours, the supernatant was discarded, and 100 μl of MTT ((2-(4,5-dimethyl-2-thiazolyl)-3,5-diphenyl-2H-tetrazole hydrobromide) (1 mg/mL) was added to each well. After another 4 hours, the supernatant was discarded, and 100 μL of DMSO was added to each well. After mixing, the absorbance was measured at 570 nm using a microplate reader. An IC50 calculation software was used to determine the half inhibitory concentration (IC50).

[2] = system: human lung cancer cell (A-549); assay: as above; type: cell-based; conditions: 48 hours treatment, A549
Protocol: as §1, §2, §3, §4, §5, §6

[3] = system: human prostate cancer cell line (PC-3); assay: as above; type: cell-based; conditions: 48 hours treatment
Protocol: as §1, §2, §3, §4, §5, §6

[4] = system: PC-3, SGC-7901 and A-549 tumor cells; assay: tumor cell proliferation inhibition test, summary over the three cell lines; type: cell-based, human; conditions: in the 3 cell lines tested
Protocol: as §1, §2, §6

| SMILES | IC50 [1] | IC50 [2] | IC50 [3] | activities compared with 5-fluorouracil [4] |
| --- | --- | --- | --- | --- |
| CCN1C[C@]2(OC(=O)c3ccccc3NC(=O)/C=C/c3cnccc3C)CC[C@H](OC)[C@]34C1[C@@H](C[C@H]23)[C@@]1(O)C[C@H](OC)C[C@H]2C[C@@H]4[C@]1(O)[C@H]2OC [Compound 6] | 37.8 ± 0.42 µM | 42.65 ± 0.38 µM | 33.5 ± 1.17 µM | – |
| CCN1C[C@]2(OC(=O)c3ccccc3NC(=O)/C=C(\C)c3ccncc3)CC[C@H](OC)[C@]34C1[C@@H](C[C@H]23)[C@@]1(O)C[C@H](OC)C[C@H]2C[C@@H]4[C@]1(O)[C@H]2OC [Compound 9] | > 100 µM | > 100 µM | 73.37 ± 0.69 µM | – |
| CCN1C[C@]2(OC(=O)c3ccccc3NC(=O)/C=C/c3cc(C)nc(C)c3)CC[C@H](OC)[C@]34C1[C@@H](C[C@H]23)[C@@]1(O)C[C@H](OC)C[C@H]2C[C@@H]4[C@]1(O)[C@H]2OC [Compound 13] | 18 ± 0.58 µM | 32.3 ± 1.34 µM | 16.6 ± 1.87 µM | – |
| CCc1cncc(/C=C/C(=O)Nc2ccccc2C(=O)O[C@@]23CC[C@H](OC)[C@]45C([C@@H](C[C@H]24)[C@@]2(O)C[C@H](OC)C[C@H]4C[C@@H]5[C@]2(O)[C@H]4OC)N(CC)C3)c1 [Compound 8] | 33.5 ± 1.18 µM | 25.1 ± 2.23 µM | 38.1 ± 0.44 µM | – |
| CCN1C[C@]2(OC(=O)c3ccccc3NC(=O)/C=C/c3ccnc(C)c3)CC[C@H](OC)[C@]34C1[C@@H](C[C@H]23)[C@@]1(O)C[C@H](OC)C[C@H]2C[C@@H]4[C@]1(O)[C@H]2OC [Compound 11] | 10.2 ± 0.45 µM | 18.6 ± 0.43 µM | 10.2 ± 0.78 µM | equal or better activities than 5-fluorouracil |
| CCN1C[C@]2(OC(=O)c3ccccc3NC(=O)/C=C/c3ccccn3)CC[C@H](OC)[C@]34C1[C@@H](C[C@H]23)[C@@]1(O)C[C@H](OC)C[C@H]2C[C@@H]4[C@]1(O)[C@H]2OC [Compound 3] | 13.7 ± 1.28 µM | – | 15.2 ± 1.18 µM | – |
| CCN1C[C@]2(OC(=O)c3ccccc3NC(=O)/C(C)=C/c3ccncc3)CC[C@H](OC)[C@]34C1[C@@H](C[C@H]23)[C@@]1(O)C[C@H](OC)C[C@H]2C[C@@H]4[C@]1(O)[C@H]2OC [Compound 10] | > 100 µM | > 100 µM | > 100 µM | – |
| CCN1C[C@]2(OC(=O)c3ccccc3NC(=O)/C(C)=C/c3cccc(C)n3)CC[C@H](OC)[C@]34C1[C@@H](C[C@H]23)[C@@]1(O)C[C@H](OC)C[C@H]2C[C@@H]4[C@]1(O)[C@H]2OC [Compound 18] | > 100 µM | > 100 µM | > 100 µM | – |
| CCN1C[C@]2(OC(=O)c3ccccc3NC(=O)/C=C/c3cc(C)ccn3)CC[C@H](OC)[C@]34C1[C@@H](C[C@H]23)[C@@]1(O)C[C@H](OC)C[C@H]2C[C@@H]4[C@]1(O)[C@H]2OC [Compound 14] | 87.02 ± 0.58 µM | 41.3 ± 1.42 µM | 67.8 ± 1.3 µM | – |
| O=c1[nH]cc(F)c(=O)[nH]1 [Compound 5-FU, 5-fluorouracil, reference compound] | 22.4 ± 1.67 µM | 15.6 ± 3.54 µM | 8.17 ± 0.39 µM | – |
| CCN1C[C@]2(OC(=O)c3ccccc3NC(=O)/C=C/c3cncc(C)c3)CC[C@H](OC)[C@]34C1[C@@H](C[C@H]23)[C@@]1(O)C[C@H](OC)C[C@H]2C[C@@H]4[C@]1(O)[C@H]2OC [Compound 5] | 29.6 ± 3.54 µM | 13.2 ± 0.39 µM | 11.3 ± 0.64 µM | equal or better activities than 5-fluorouracil |
| CCN1C[C@]2(OC(=O)c3ccccc3NC(=O)/C=C/c3cc(C)cc(C)n3)CC[C@H](OC)[C@]34C1[C@@H](C[C@H]23)[C@@]1(O)C[C@H](OC)C[C@H]2C[C@@H]4[C@]1(O)[C@H]2OC [Compound 16] | > 100 µM | 69.3 ± 1.42 µM | 40.8 ± 2.55 µM | – |
| CCN1C[C@]2(OC(=O)c3ccccc3NC(=O)/C=C/c3ccncc3)CC[C@H](OC)[C@]34C1[C@@H](C[C@H]23)[C@@]1(O)C[C@H](OC)C[C@H]2C[C@@H]4[C@]1(O)[C@H]2OC [Compound 1] | 22.5 ± 1.35 µM | 9.12 ± 2.53 µM | 18.1 ± 0.64 µM | – |
| CCc1ccnc(/C=C/C(=O)Nc2ccccc2C(=O)O[C@@]23CC[C@H](OC)[C@]45C([C@@H](C[C@H]24)[C@@]2(O)C[C@H](OC)C[C@H]4C[C@@H]5[C@]2(O)[C@H]4OC)N(CC)C3)c1 [Compound 15] | 21.8 ± 1.2 µM | 47.3 ± 2.56 µM | 44.1 ± 2.73 µM | – |
| CCN1C[C@]2(OC(=O)c3ccccc3NC(=O)/C=C/c3ccc(C)nc3)CC[C@H](OC)[C@]34C1[C@@H](C[C@H]23)[C@@]1(O)C[C@H](OC)C[C@H]2C[C@@H]4[C@]1(O)[C@H]2OC [Compound 7] | 39.3 ± 1.74 µM | 47.31 ± 0.44 µM | 43.3 ± 1.42 µM | – |
| CCN1C[C@]2(OC(=O)c3ccccc3NC(=O)/C=C(\C)c3cccnc3)CC[C@H](OC)[C@]34C1[C@@H](C[C@H]23)[C@@]1(O)C[C@H](OC)C[C@H]2C[C@@H]4[C@]1(O)[C@H]2OC [Compound 4] | > 100 µM | 67.31 ± 0.44 µM | > 100 µM | – |
| CCN1C[C@]2(OC(=O)c3ccccc3NC(=O)/C=C/c3cccc(C)n3)CC[C@H](OC)[C@]34C1[C@@H](C[C@H]23)[C@@]1(O)C[C@H](OC)C[C@H]2C[C@@H]4[C@]1(O)[C@H]2OC [Compound 19] | 95.1 ± 1.92 µM | > 100 µM | > 100 µM | – |
| CCc1cc(/C=C/C(=O)Nc2ccccc2C(=O)O[C@@]23CC[C@H](OC)[C@]45C([C@@H](C[C@H]24)[C@@]2(O)C[C@H](OC)C[C@H]4C[C@@H]5[C@]2(O)[C@H]4OC)N(CC)C3)ccn1 [Compound 12] | 25.05 ± 0.16 µM | 21.7 ± 0.45 µM | 13.86 ± 0.1 µM | equal or better activities than 5-fluorouracil |
| CCN1C[C@]2(OC(=O)c3ccccc3NC(=O)/C=C/c3cccnc3)CC[C@H](OC)[C@]34C1[C@@H](C[C@H]23)[C@@]1(O)C[C@H](OC)C[C@H]2C[C@@H]4[C@]1(O)[C@H]2OC [Compound 2] | 26.3 ± 0.37 µM | 13.4 ± 2.78 µM | 26.4 ± 0.36 µM | – |
| CCN1C[C@]2(OC(=O)c3ccccc3NC(=O)/C=C/c3cc(C(C)C)ccn3)CC[C@H](OC)[C@]34C1[C@@H](C[C@H]23)[C@@]1(O)C[C@H](OC)C[C@H]2C[C@@H]4[C@]1(O)[C@H]2OC [Compound 17] | > 100 µM | > 100 µM | 61.3 ± 1.24 µM | – |
